Test results from patent US10752612B2, “PLK4 inhibitors” (LUDWIG INSTITUTE FOR CANCER RESEARCH LTD, priority 2015, dated 2020).

Experiments:
Aurora B = target: T1, Aurora B (Homo sapiens, UniProt Q96GD4); experiment: Aurora B radiometric kinase assay (Reaction Biology); format: biochemical
T1 construct: Reaction Biology (Malvern, Pa.), contract assay
Protocol: Aurora B and other radiometric kinase assays were performed by Reaction Biology (Malvern, Pa.).

[1] = system: full-length mouse Plk4-YFP; experiment: Plk4 stabilization assay, Plk4-YFP DLD-1 cells; format: cell-based, human; conditions: 25 nM or 100 nM, 24 hours
Protocol: Plk4 stabilization assay. Expression was induced in Plk4-YFP DLD-1 cells using 1 μg/ml doxycycline. At the same time, cells were treated with the indicated concentrations of compounds. Cells were incubated for 24 hours before harvesting for Western blotting (see below).
Western blotting. […] Cell extracts were stored at −80° C. until use.

HeLa cells = experiment: Proliferation assay, HeLa; format: cell-based, human
Protocol: Proliferation assays. For each condition, cells were seeded in triplicate into 6-well plates at 50,000 cells/well. Compounds were added at the indicated concentrations. At 24-hour intervals, 3 wells were harvested per condition. Cell counting was performed using a TC10 automated cell counter (Bio-Rad). Results are from 3 independent experiments.

T1 sequence (Q96GD4 whole entry): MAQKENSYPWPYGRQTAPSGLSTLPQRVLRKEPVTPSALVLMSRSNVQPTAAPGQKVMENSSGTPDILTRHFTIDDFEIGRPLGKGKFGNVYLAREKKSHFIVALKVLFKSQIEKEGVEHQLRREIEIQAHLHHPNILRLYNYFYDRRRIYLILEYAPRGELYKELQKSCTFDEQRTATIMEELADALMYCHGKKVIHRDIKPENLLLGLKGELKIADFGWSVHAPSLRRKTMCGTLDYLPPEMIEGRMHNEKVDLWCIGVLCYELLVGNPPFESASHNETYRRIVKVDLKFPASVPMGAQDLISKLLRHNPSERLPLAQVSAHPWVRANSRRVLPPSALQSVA

COc1c(Nc2cc(C)[nH]n2)nc(Sc2ccc(S(=O)(=O)Cc3cccc([N+](=O)[O-])c3F)cc2F)nc1N1CCOCC1 [Centrinone, 2-((2-fluoro-4-((2-fluoro-3-nitrobenzyl)sulfonyl)phenyl)thio)-5-methoxy-N-(5-methyl-1H-pyrazol-3-yl)-6-morpholinopyrimidin-4-amine]
Ki (Aurora B): 437 nM
Plk4-YFP stabilization [1]: more substantial stabilization
proliferation versus controls (HeLa cells; HeLa, first two days after addition): identical to controls
cell death per generation explaining reduced proliferation rate (HeLa cells; centrosome-less HeLa, theoretical curves versus measurements): 25%
